Data as given in paper PMC7180617, “Biological Evaluation of 3-Benzylidenechromanones and Their Spiropyrazolines-Based Analogues” (Molecules, 2020).
“And” between values parts separate entries of the source, which are not always exact repeats. Equal values may be shown once.

Columns and labels:
erythrocytes = assay: Red blood cell morphology (phase-contrast microscopy); type: cell-based; settings: 2% erythrocyte suspension, 37 °C, 1 h, phase contrast 400×
Method: Studies on erythrocyte morphology complement the erythrotoxicity studies because they provide information on potential immediate interactions of the tested compounds with the erythrocyte lipid bilayer, and the possibility of creating pathological forms of erythrocytes, which are not able to carry oxygen. The effects of the synthesized compounds, and the two reference compounds chromanone and flavanone, on the morphology of erythrocytes is shown in Figure 6. Briefly, 2% RBC suspension was incubated with 0.9% NaCl (control samples) or tested compounds at various concentrations corresponding to their activity towards cancer cell lines.
A 2% erythrocyte suspension was incubated at 37 °C for one hour with various concentrations of synthesized compounds. The morphology of the RBCs was examined by means of a phase contrast Opta-Tech inverted microscope, at 400× magnification, equipped with software (OptaView 7) for image analysis.

HL-60 cells [1] = assay: MTT cytotoxicity assay, HL-60; type: cell-based, human; settings: MTT, 46 h + 2 h incubation
Method: (§1) The first stage of the study used the MTT viability test to determine the cytotoxicity of ten compounds, i.e., 3-arylidenechromanone, 3-arylideneflavanone, spirochromanone and spiro- flavanone analogues, against four human cancer cell lines: HL-60, NALM-6, WM-115 and COLO-205.
(§2) Cytotoxicity was tested against human skin melanoma cells (WM-115, ECACC, Salisbury, UK), two human leukemia cell lines, viz. promyelocytic leukemia (HL-60) and lymphoblastic leukemia (NALM-6), and human colon adenocarcinoma cells (COLO-205). The cell lines COLO-205, WM-115 and HL-60 used in this work came from the ATCC American Type Culture Collection (Manassas, VA, USA), whereas the NALM-6 cell line was purchased from the German Collection of Microorganisms and Cell Cultures (Braunschweig, Germany). The leukaemia cells and colon adenocarcinoma were cultured in RPMI 1640 medium (Invitrogen, Grand Island, NY, USA) supplemented with 10% fetal bovine serum (FBS; Invitrogen) and gentamicin (25 µg/mL; KRKA, Novo Mesto, Slovenia). For melanoma WM-115 cells, Dulbecco’s minimal essential medium (DMEM; Invitrogen) was used. All cell lines were cultured at 37 °C in a humidified atmosphere of 5% CO2 in air.
(§3) For all experiments, the studied compounds were dissolved in DMSO (Sigma-Aldrich) and were further diluted in culture medium to obtain <0.1% DMSO concentration. In each experiment, controls with and without 0.1% DMSO were performed. The cytotoxicity of all compounds and of the reference compounds 4-chromanone and 3-benzylideneflavanone was determined by the MTT assay, i.e., 3-(4,5-dimethylthiazol-2-yl)-2,5-diphenyltetrazolium bromide (Sigma, St. Louis, MO, USA), which measures cellular dehydrogenase activity. Exponentially growing cells were seeded a day before the experiment onto a 96-well microplates (Nunc, Roskilde, Denmark) at a density up to 6–8 × 10^3 cells/well (depending on the cell line). Subsequently, various concentrations of the studied compounds freshly prepared in DMSO and diluted with complete culture medium were added. All compounds were tested for their cytotoxicity at a final concentration of 10^−7–10^−3 M. After 46 h of incubation with the studied compounds, the cells were treated with the MTT reagent and incubation was continued for another two hours. MTT – formazan crystals were dissolved in 20% sodium dodecyl sulphate (SDS, Sigma-Aldrich) and 50% DMF (Sigma-Aldrich) at pH 4.7; following this, absorbance was read at 570 nm on a multifunctional Victor ELISA-plate reader (Perkin Elmer, Turku, Finland). The IC50 values, i.e., the concentration of the test compound required to reduce the cell survival fraction to 50% of controls, were calculated from concentration-response curves and used as a measure of the sensitivity of the cells to a given treatment. As a control, cultured cells were grown in the absence of drugs. The data points represent the means of at least five to ten repeats ± standard deviation (S.D.).

COLO-205 cells = assay: MTT cytotoxicity assay, COLO-205; type: cell-based, human; settings: 46 h + 2 h incubation
Method: as §1, §2, §3

[2] = Lipophilicity (logP) by RP-TLC; settings: for chromatographic logP: RP-18 F254S TLC plates
Source text: Lipophilicity is one of the most important physicochemical properties in pharmaceutical research. It can be considered a key determinant of the pharmacokinetic properties of a drug. It is commonly measured by the partition coefficient between water and n-octanol, being expressed as logP [14]. […] Knowledge of the partition coefficient is valuable: it is frequently used in structure–activity relationship (SAR) and quantitative structure–activity relationship (QSAR) studies. The experimental lipophilicity of the synthesized compounds, viz. benzylideneflavanones, benzylidenechromanones and spiropyrazolines, was determined using RP-TLC. […] It is important to examine the relationship between structure of the compound and its lipophilicity and cytotoxicity.
The RP-TLC experiments were performed on TLC plates (5 × 10 cm) RP-18 F254S (Merck, Darmstadt, Germany). The synthesized compounds were dissolved in N,N-dimethylformamide DMF (2 mg/mL). […] A DMF-water solvent system was used as mobile phase. […] All experiments were performed at room temperature. The logP parameter was calculated using the equation from the calibration curve.

NALM-6 cells = assay: MTT cytotoxicity assay, NALM-6; type: cell-based, human; settings: 46 h + 2 h incubation
Method: as §1, §2, §3

WM-115 cells = assay: MTT cytotoxicity assay, WM-115; type: cell-based, human; settings: 46 h + 2 h incubation
Method: as §1, §2, §3

HL-60 cells [3] = assay: Cell cycle analysis by flow cytometry (propidium iodide); type: cell-based, human; settings: for cell cycle, G1, mean / cell cycle, G2/M, mean / cell cycle, S, mean: mean of n=2; for cell cycle distribution, G1 / cell cycle distribution, G2 / cell cycle distribution, G2/M: HL-60, 20 h, mean ± SD, n = 2
Method: The next stage examined the effects of the selected compounds on cell cycle progression in HL-60 leukemia cells. […] One million HL-60 (subline CCL 240; cell type: promyeloblast) cells in 3 mL of RPMI 1640 supplemented with 20% FBS were seeded on 6-well plate. […] Fixed cells were stored in −20 °C for 2–3 days. Before analysis, cells were centrifuged (10 min, 1500 rpm, 4 °C) and washed twice with cold PBS. After the second wash, the cells were suspended in 1mL of PBS containing 100 μg of RNase A and incubated in 37 °C for 10 min. Next, 5 μL of solution of propidium iodide (1 mg/mL) was added to each sample and incubated in dark for 30 min at RT. Stained cells were analyzed by flow cytometry (FACS Calibur, BD Biosciences, San Jose, CA, USA). Data from 10,000 gated cells were collected using CellQuestPro software (Ver 6.0, Becton Dickinson) and cell cycle analysis was performed with ModFit LT software (Ver 3.2, Verity Software House, Topsham, ME, USA).

[4] = Homo sapiens, NALM-6, 48 h, MTT
[5] = Homo sapiens, WM-115, 48 h, MTT
[6] = Figure S3, HL-60, 0.5 × IC50 (µM: quercetin 29, 1 1.5, 7 18, 10 4.7, 11 4.5, 12 6)
[7] = Figure S3, HL-60, 0.5 × IC50, each of two repetitions
[8] = Figure S3, HL-60, 1 × IC50 (µM in parenthesis: quercetin 58, 1 3, 7 35, 10 9.4, 11 9, 12 12)
[9] = Figure S3, HL-60, 1 × IC50 (µM: quercetin 58, 1 3, 7 35, 10 9.4, 11 9, 12 12)
[10] = Figure S3, HL-60, 1 × IC50, each of two repetitions
[11] = 0.5 × IC50 (µM: quercetin 29, 2 1.5, 7 18, 12 6, 11 4.5, 10 4.7)
[12] = 1 × IC50 (µM: quercetin 58, 2 3, 7 35, 12 12, 11 9, 10 9.4)

| SMILES | erythrocyte morphology (in words) (erythrocytes) | IC50 (HL-60 cells [1]; Homo sapiens, HL-60, 48 h) [µM] | IC50 (COLO-205 cells; Homo sapiens, COLO 205, 48 h) [µM] | chromatographic logP [2] | IC50 (NALM-6 cells; [4]) [µM] | IC50 (WM-115 cells; [5]) [µM] | cell cycle, G1, mean (HL-60 cells [3]; [6]) | cell cycle, G2/M, mean (HL-60 cells [3]; [6]) | cell cycle, S, mean (HL-60 cells [3]; [6]) | cell cycle, G2/M, single repetitions (HL-60 cells [3]; [7]) | cell cycle, S, single repetitions (HL-60 cells [3]; [7]) | cell cycle, G1, mean (HL-60 cells [3]; [8]) | cell cycle, G2/M, mean (HL-60 cells [3]; [9]) | cell cycle, S, mean (HL-60 cells [3]; [9]) | cell cycle, G2/M, single repetitions (HL-60 cells [3]; [10]) | cell cycle, S, single repetitions (HL-60 cells [3]; [10]) | other results |
| --- | --- | --- | --- | --- | --- | --- | --- | --- | --- | --- | --- | --- | --- | --- | --- | --- | --- |
| COc1cccc(/C=C2/C(=O)c3ccccc3OC2c2ccccc2)c1 (stereo not shown) [Compound 9, (E)-3-(3-methoxybenzylidene)-2-phenylchroman-4-one] | echinocytes accounted for the major part of erythrocytes | 35.9 ± 2.96 | 170 ± 3.81 | 5.83 | 15.7 ± 6.23 | 16.9 ± 3.78 | – | – | – | – | – | – | – | – | – | – | – |
| COc1ccc(/C=C2/C(=O)c3ccccc3OC2c2ccccc2)cc1 (stereo not shown) [Compound 1, (E)-3-(4-methoxybenzylidene)-2-phenylchroman-4-one] | extensive formation of echinocytes and anisocytes | 53.4 ± 2.49 | 51 ± 2.3 | 4.79 | 49.8 ± 2.35 | 58.1 ± 4.93 | 23,52% | 53,45% | 23,04% | 39,74% and 67,16% | 21,38% and 24,69% | 21,31% | 53,71% | 25,02% | 68,86% and 38,56% | 17,63% and 32,40% | – |
| O=c1c(O)c(-c2ccc(O)c(O)c2)oc2cc(O)cc(O)c12 [Quercetin, reference compound] | – | 58 ± 4 | – | – | – | – | 14,26% | 60,76% | 24,99% | 60,50% and 61,01% | 23,57% and 26,40% | 11,59% | 49,04% | 39,38% | 46,07% and 52,00% | 41,15% and 37,60% | cell cycle, G1, single repetitions (HL-60 cells [3]; [7]): 12,59% and 15,93%; cell cycle, G1, single repetitions (HL-60 cells [3]; [10]): 12,78% and 10,40%; cell cycle distribution, G1 (HL-60 cells [3]; [11]): 14.3 ± 2.4%; cell cycle distribution, G2 (HL-60 cells [3]; [11]): 25.0 ± 2.0%; cell cycle distribution, G2/M (HL-60 cells [3]; [11]): 60.8 ± 0.4%; cell cycle distribution, G1 (HL-60 cells [3]; [12]): 11.6 ± 1.7%; cell cycle distribution, G2 (HL-60 cells [3]; [12]): 39.4 ± 2.5%; cell cycle distribution, G2/M (HL-60 cells [3]; [12]): 49.0 ± 4.2%; cells arrested in G2/M phase (HL-60 cells [3]; HL-60, concentrations of IC50 and 0.5 × IC50): 50–60%; IC50 (NALM-6 cells; Homo sapiens, NALM-6, MTT): 77.1 ± 7.8 µM; IC50 (WM-115 cells; Homo sapiens, WM-115, MTT): 178 ± 21.5 µM |
| N.N.O=C([O-])C1(C(=O)[O-])CCC1.[Pt+2] [Carboplatin, reference compound] | – | – | – | – | – | – | – | – | – | – | – | – | – | – | – | – | IC50 (HL-60 cells [1]): 4.3 ± 1.3 µM; IC50 (COLO-205 cells): 355 ± 73.7 µM; logP ([2]; RP-TLC, DMF-water mobile phase, room temperature): −2.30; IC50 (NALM-6 cells; MTT): 0.7 ± 0.2 µM; IC50 (WM-115 cells; MTT): 422 ± 50.2 µM |
